Test results as given in paper PMC12461739, “Multi-targeted azacoumarin–cyanocinnamate hybrids induce G2/M arrest and apoptosis via tubulin, and COX-2/VEGFR modulation: insights from in vitro mechanistic basis and in vivo validation” (RSC Medicinal Chemistry, 2025).

Experiments:
MCF-7 cells = test: Annexin V-FITC/PI apoptosis assay; type: cell-based, human; details: MCF-7, IC50 concentration, 24 h
Method: Apoptotic cell death was quantified using annexin V-FITC and propidium iodide (PI) staining, in accordance with the manufacturer's instructions (BioVision, USA; Cat No. K101-25), with minor protocol adjustments. MCF-7 cells were plated at a density of 2 × 10^5 cells per well in DMEM-containing supplements and incubated overnight at 37 °C in a humidified atmosphere with 5% CO2. […] After treatment, cells were harvested using 0.25% trypsin–EDTA, rinsed twice with ice-cold phosphate-buffered saline (PBS), and resuspended in 500 μL of annexin V binding buffer. To each sample, 5 μL of annexin V-FITC and 5 μL of propidium iodide (PI) were then added for staining. The staining mixture was incubated in the dark for 15 minutes at room temperature. Samples were analyzed on a BD FACSCalibur™ flow cytometer (BD Biosciences, USA). Fluorescence was detected using the FL1 channel (530 nm) for annexin V-FITC and the FL2 channel (585 nm) for PI. Quadrant gating was used to distinguish between viable cells (annexin V^−/PI^−), early apoptotic cells (annexin V^+/PI^−), late apoptotic cells (annexin V^+/PI^+), and necrotic cells (annexin V^−/PI^+).

p53 = test: qRT-PCR gene expression, p53; type: cell-based, human; details: MCF-7, 7.653 μM, 24 h
Method: Untreated cells served as negative controls. RNA concentration and purity were verified spectrophotometrically prior to cDNA synthesis. Complementary DNA (cDNA) was synthesized from purified RNA using the RT^2 First Strand Kit (Qiagen, Valencia, CA, USA) following the supplied protocol. Quantitative real-time PCR (qRT-PCR) was performed on a Corbett Rotor-Gene 6000 system (Qiagen, USA) using the RT^2 SYBR® Green ROX™ FAST Master Mix (Qiagen). Each 25 μL reaction contained 12.5 μL of master mix, 1 μL of gene-specific primers (RT^2 qPCR Primer Assays, Qiagen), 1 μL of cDNA template, and 10.5 μL of RNase-free water. Gene-specific primers were selected using the PrimerBank database for BAX, BCL2, and TP53, along with GAPDH as the endogenous control (Table S3). Thermal cycling conditions were set as follows: initial enzyme activation at 95 °C for 10 minutes, followed by 40 cycles of denaturation at 95 °C for 15 seconds, and annealing at 60 °C for 30 seconds. Amplification specificity was confirmed by melting curve analysis. Gene expression levels were normalized to GAPDH mRNA as the internal reference, and relative quantification was performed using the ΔΔCt method. […] Statistical analysis was performed using GraphPad Prism software, with p < 0.05 considered statistically significant.[79]

[1] = Serum liver and kidney function markers (ALT, AST, creatinine, urea)
Method: Blood samples were collected under light ether anesthesia via the retro-orbital venous plexus and centrifuged at 3000 rpm for 10 minutes. The resulting serum was separated and stored at −20 °C for biochemical analysis.
Serum alanine aminotransferase (ALT) and aspartate aminotransferase (AST) levels were measured as indicators of liver function using commercially available assay kits (BioVenic, NY, USA, (AST) Cat. No.: IVEK3681, (ALT) Cat. No.: IVEK3446), in accordance with the manufacturer's instructions. In the ALT assay, the enzyme catalyzes the conversion of alanine to pyruvate, which is then reduced to lactate by lactate dehydrogenase, resulting in the oxidation of NADH to NAD^+. This reaction causes a decrease in absorbance at 340 nm, which is proportional to ALT activity. Similarly, the AST assay is based on the transamination of aspartate to oxaloacetate, which then reacts with NADH in the presence of malate dehydrogenase, leading to a decrease in NADH absorbance at 340 nm. For each assay, 10 μL of serum was added to the respective substrate buffer and incubated at 37 °C for 30 minutes. The change in absorbance was recorded using a microplate reader at 340 nm. Enzymatic activities were calculated and expressed in units per liter (U L^−1). All measurements were performed in triplicate, and results are presented as mean ± SD.[98,99]
Serum creatinine and urea levels were assessed as indicators of renal function using colorimetric assay kits from BioAssay Systems (DICT-500, USA), according to the manufacturers' protocols. Creatinine concentration was determined based on a colorimetric enzymatic reaction. In this assay, creatinine is enzymatically converted to creatine and then to sarcosine, which is oxidized to produce hydrogen peroxide. The resulting hydrogen peroxide reacts with a chromogenic substrate in the presence of peroxidase to generate a colored product, the intensity of which is proportional to the creatinine concentration. Briefly, 10 μL of serum was mixed with 200 μL of working reagent, incubated at 25 °C for 5 minutes, and the absorbance was recorded at 510 nm using a microplate reader. Values were quantified against a standard curve and expressed in mg dL^−1. On the other hand, urea levels were measured based on an enzymatic reaction that produces a chromophore detectable at 340 nm. Specifically, 5 μL of serum was added to 200 μL of the assay reagent and incubated at 37 °C for 10 minutes. Absorbance was measured at 340 nm, and urea concentration was calculated using a standard curve and expressed as mg dL^−1.

α-tubulin = test: Western blot of α-tubulin in MCF-7 cells; type: cell-based, human; details: MCF-7, 7.653 μM (IC50)
Method: Cells were lysed in RIPA buffer (Thermo Scientific, Cat. #89900) containing protease and phosphatase inhibitors, and lysates were centrifuged at 12 000 × g for 15 min at 4 °C. Protein concentrations were determined using the BCA assay (Thermo Scientific, Cat. #23225), and equal amounts (20–50 μg) were mixed with 2× Laemmli sample buffer (Bio-Rad, Cat. #1610737) and denatured at 95 °C for 5 min. Proteins were separated on SDS-PAGE gels (8–10% for α-tubulin, 12% for β-actin; Bio-Rad TGX™, Cat. #456-9033) and transferred to PVDF membranes (Immobilon-P, Millipore, Cat. #IPVH00010) using a wet transfer system (100 V, 1 h, 4 °C). Membranes were blocked with 5% non-fat milk in TBST for 1 h at room temperature and incubated overnight at 4 °C with anti-α-tubulin (1 : 1000, Cell Signaling Technology, Cat. #3873) and anti-β-actin (1 : 5000, Sigma-Aldrich, Cat. #A5441) antibodies. After washing, membranes were incubated with HRP-conjugated secondary antibodies ([…], Cell Signaling Technology) for 1 h at room temperature. Protein bands were visualized using the SuperSignal™ West Pico/Femto ECL substrate (Thermo Scientific, Cat. #34095) and imaged with a Bio-Rad ChemiDoc system. Band intensities were quantified by densitometry using ImageJ software and normalized to β-actin levels.[82–84]

[2] = MTT cytotoxicity assay, MCF-10A; type: cell-based, human; details: human, MCF-10A non-tumorigenic breast epithelial cells, MTT, 48 h treatment, non-tumorigenic breast epithelial cells; read-out: IC50, cytotoxicity toward MCF-10A
Method: The cytotoxic effects of the synthesized compounds were evaluated using the MTT assay. […] Following incubation, cells were treated with serial dilutions of the test compounds prepared in DMSO. The final concentration of DMSO in all wells, including controls, was maintained below 0.5% v/v to avoid solvent-related cytotoxicity. Doxorubicin was used as a positive control for comparison of antiproliferative activity. Following 48 hours of treatment, the culture medium was gently removed, and each well received 20 μL of MTT reagent (5 mg mL^−1 in phosphate-buffered saline). The plates were incubated at 37 °C for 4 hours to facilitate the enzymatic reduction of MTT into formazan by metabolically active cells. After incubation, the solution was discarded, and 100 μL of dimethyl sulfoxide was added. The absorbance of each well was measured at 570 nm using a microplate spectrophotometer. Cell viability was determined by comparing absorbance values to those of the untreated controls and expressed as a percentage. GraphPad Prism software was used to plot dose–response curves and calculate IC50 values.

CCOC(=O)/C(C#N)=C/c1ccc(Oc2c(C)c3cc(Br)c(O)c(Br)c3[nH]c2=O)cc1 [Compound 7, ethyl (E)-2-cyano-3-(4-((6,8-dibromo-7-hydroxy-4-methyl-2-oxo-1,2-dihydroquinolin-3-yl)oxy)phenyl)acrylate]
late apoptotic cells (MCF-7 cells; control 0.12%): 8.41% | early apoptotic cells (MCF-7 cells; control 0.37%): 15.36% | necrotic cell population (MCF-7 cells; control 2.22%): 3.57% | p53 expression relative to untreated control (p53): 3.03 fold | serum creatinine ([1]; EAC + compound 7 (10 mg kg^−1 i.p.), EAC control 1.7 ± 0.04): 0.6 ± 0.02 mg/dL | serum urea ([1]; EAC + compound 7 (10 mg kg^−1 i.p.), EAC control 94 ± 1.78): 44.83 ± 0.7 mg/dL | serum ALT ([1]; EAC + compound 7 (10 mg kg^−1 i.p.), EAC control 140.66 ± 3.45): 49.83 ± 1.16 U L^−1 | serum AST ([1]; EAC + compound 7 (10 mg kg^−1 i.p.), EAC control 168.33 ± 3.7): 57.5 ± 1.56 U L^−1 | serum ALT ([1]; compound 7-control group, no EAC (10 mg kg^−1 i.p.), untreated 27.16 ± 0.94): 22.83 ± 0.6 U L^−1 | serum creatinine ([1]; compound 7-control group, no EAC, untreated 0.5 ± 0.02): 0.5 ± 0.03 mg/dL | serum urea ([1]; compound 7-control group, no EAC, untreated 24.16 ± 1.07): 21.83 ± 0.6 mg/dL | serum AST ([1]; compound 7-control group, no EAC, untreated 41.66 ± 1.3): 37.83 ± 0.94 U L^−1 | reduction of α-tubulin protein expression vs untreated control (α-tubulin): 2.7 fold | IC50 at 48 h [2]: 52 µM
